In patent US20110039902A1, “PROCESS FOR PREPARING A CRYSTALLINE FORM COMPOUND OF 3-BENZYL-2-METHYL-2,3,3a,4,5,6,7,7a-OCTAHYDROBENZO[d]ISOXAZOL-4-ONE” (ABIOGEN PHARMA S.P.A., priority 2008, published 2011) one finds stability to temperature data, which are given here for 1 compound.

The series can be described thus: stability of BTG 1640 hydrochloride salt to temperature. Particulars: at temperatures above 30° C. Type of series: physicochemical.

Turning to `CN1OC2CCCC(=O)C2C1Cc1ccccc1.Cl` (stereo not shown) [hydrochloride salt of BTG 1640], the stability to temperature result is on record as “unstable”.
